Key:
ACAT [1] = molecular target: T1, ACAT (Mus musculus, UniProt Q61263); assay: ACAT inhibitory activity test in J774 cells (anti-foaming action); type: cell-based; conditions: for IC50: J774 cells, 25-hydroxycholesterol 10 µg/mL, 18 hours, cholesterol ester per protein
T1 construct: J774 cells or HepG2 cells were sown on a 24-well plate; endogenous in cells; host or cells: J774 cells
T1 sequence (Q61263 1-540): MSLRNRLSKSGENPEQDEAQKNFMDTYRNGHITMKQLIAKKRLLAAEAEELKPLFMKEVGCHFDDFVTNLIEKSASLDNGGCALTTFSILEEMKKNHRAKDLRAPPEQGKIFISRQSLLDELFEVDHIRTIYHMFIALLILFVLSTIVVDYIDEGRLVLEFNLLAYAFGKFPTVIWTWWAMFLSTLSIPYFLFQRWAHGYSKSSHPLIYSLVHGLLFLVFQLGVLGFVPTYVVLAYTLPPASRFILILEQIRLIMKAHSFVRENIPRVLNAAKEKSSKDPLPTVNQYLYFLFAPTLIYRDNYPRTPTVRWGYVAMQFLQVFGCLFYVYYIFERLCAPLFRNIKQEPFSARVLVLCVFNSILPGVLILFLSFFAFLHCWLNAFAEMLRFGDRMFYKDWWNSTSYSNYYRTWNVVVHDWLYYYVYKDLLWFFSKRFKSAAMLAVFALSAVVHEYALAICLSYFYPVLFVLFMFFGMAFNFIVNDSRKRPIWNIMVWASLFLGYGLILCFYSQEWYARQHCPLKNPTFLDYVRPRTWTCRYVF
Procedure: (§1) J774 cells or HepG2 cells were sown on a 24-well plate and incubation was carried out at 37°C for 24 hours in a 5% CO2 incubator using a Dulbecco's modified Eagle's medium for J774 cells and an Eagle's minimum essential medium for HepG2 cells (where both media contained 10% of fetal bovine serum). […] The medium was taken out, washed with PBS twice, extracted with 1.5 mL of hexane-isopropanol (3:2) and concentrated to dryness. The extract was dissolved in isopropanol containing 0.2 mL of 10% Triton X-100 and then total cholesterol (TC) and free cholesterol (FC) were determined by a Cholesterol E Test Wako (Wako Pure Chemical) and a Free Cholesterol E Test Wako (Wako Pure Chemical), respectively. The residue of the cell after extraction was solubilized with 0.25 mL of 2N NaOH at 37°C for 30 minutes and protein was determined by a BCA Protein Assay Reagent (Pierce). From the differencebetween TC and FC, amount of cholesterolester per protein was calculated and, from the comparative calculation with the control, IC50 value was determined.

[2] = Oral absorption test in rats under a fed condition (plasma concentration); type: in vivo; conditions: rat, 30 mg/kg
ACAT [3] = assay: ACAT inhibitory activity test in HepG2 cells; type: cell-based; conditions: 25-hydroxycholesterol 10 µg/mL, 18 hours, cholesterol ester per protein
Procedure: as §1

[4] = Oral absorption test in rats under a fed condition (plasma concentration); type: in vivo; conditions: compared with the compound of Example 1; rats, 30 mg/kg
Procedure: A solution of the compound of the present invention (dissolved in a mixture of water : PEG 400 = 1:4) or a suspension in 0.5% methyl cellulose (MC) was compulsorily administered per os at. the dose of 30 mg/kg to three rats under a fed condition. Blood after the administration was periodically collected and its concentration in plasma was measured.
The organic layer (upper layer) was collected, the solvent was evaporated in a nitrogen stream, the residue was dissolved in 0.2 mL of a mobile phase (refer to the following) and 80 µL thereof were measured under the following analytical conditions.
The organic layer was collected, the solvent was evaporated in a nitrogen stream, the residue was dissolved in 0.2 mL of a mobile phase (refer to the following) and 80 µL thereof were measured under the following condition for high-performance liquid chromatography. Condition for detection: • (Detector: Single-stage quadrupole mass spectrometer • Ionization method: Atmospheric pressure chemical ionization method • Temperature of nebulizer: 475°C • Corona voltage: 3 kV • Monitoring ion: m/z 569 (hydrogen addition ion of the compound of Example 78), 549 (hydrogen addition ion of the compound of Example 85)) Condition for separation: • (Column: Symmetry RP8 manufactured by Waters (3.0 mmφ × 150 mm) • Temperature of column: 45°C • Mobile phase: a solution where 0.1% ammonium formate (pH 4)/methanol/acetonitrile are mixed in […] • Flow rate: 0.8 mL/min)
To 150 µL of plasma were added a 0.1 mol/L aqueous solution of sodium hydroxide and 0.2 mL of an analogous compound (500 ng/mL of the compound of Example 28 of the Japanese Patent Application No. 8/158,743, i.e. 8-(benzimidazol-2-ylthio)-N-(2,6-diisopropylphenyl)octanamide as an internal standard, stirred and extracted with 6 mL of an isopropanol/hexane (5: 95) solution. The organic layer was collected, the solvent was evaporated in a nitrogen stream, the residue was dissolved in 0.2 mL of a mobile phase (refer to the following) and 80 µL thereof were measured under the following condition for high-performance liquid chromatography.

[5] = test system: lipid-loaded model of F1B hamster; assay: Arteriosclerotic model animal test (lipid-loaded F1B hamster); conditions: for dose from which suppression of lipid accumulation was effective / plasma cholesterol at doses effective in suppression of lipid accumulation: F1B hamsters; for dose from which suppression of lipid accumulation was effective: drug in high-fat feed; for dose from which suppression of lipid accumulation was effective / CE/FC Adrenal Gland / CE/FC Lipid Accumulation to Artery / CE/FC Liver / CE/FC Small Intestine: 10 weeks; for plasma cholesterol at doses effective in suppression of lipid accumulation: total cholesterol in plasma relative to control, Dunnett's test; for CE/FC Adrenal Gland / CE/FC Lipid Accumulation to Artery / CE/FC Liver / CE/FC Small Intestine: ratio to control (1.0)
Procedure: Male hamsters of a Bio F1B strain purchased from Nippon Charles River were randomly grouped so that each group comprised six. As from eight weeks age, they were loaded with a high-fat feed (0.3% of cholesterol and 10% of coconut oil) for ten weeks while the drug was administered by mixing with the feed. After ten weeks, blood was collected and cholesterol in plasma was measured. Further, arterywas excised after fixingbyperfusion with a 10% formalin solution. This was incised, lipid which was accumulated in the artery was stained with Oil Red O and the stained area was measured using an image analyzer.
A high-fat feed (0.3% of cholesterol and 10% of coconut oil) was prepared by way of compounding ratio of cholesterol : coconut oil : feed (CE-2) = 0.03:1:9. Incidentally, a high-fat feed was given to the control group and the administered period was 10 weeks.
Hamster under a non-fasted state was anesthetized, subj ected to an abdominal section to expose the abdominal artery and about 2.5 mL of blood were collected. The collected blood was centrifuged at 3, 000 rpm for 15 minutes to collect the plasma and then total cholesterol (TC) and free cholesterol (FC) in plasma were determined by a Cholesterol E-Test Wako (a cholesterol oxidase DAOS method) and a Free Cholesterol E-Test Wako (a cholesterol oxidase DAOS method), respectively.
About 500 mg of liver, small intestine and adrenal body were excised and washed with a physiological saline solution and lipid concentration in the tissues was measured. In the measurement, 10 mL of chloroform : methanol (2:1) as an extracting solution for lipid in the tissue were placed in the liver and the small intestine, homogenized at 3,000 rpm using a Polytron Homogenizer PT 3100 and allowed to stand at 4°C for one night. The extract was centrifuged at 1,500 rpm for 15 minutes, 0.2 mL of the supernatant liquid was evaporated to dryness using a vacuum pump, the residue was dissolved in 50 µL of isopropanol and each lipid was subjected to the same kits whereupon TC and FC were quantified. With regard to the adrenal body, it was finely cut using scissors and 0.5 mL of chloroform : methanol (2:1) was added thereto followed by being allowed to stand at 4°C for one night. That was centrifuged at 1,500 rpm for 15 minutes, 0.2 mL of the supernatant liquid was evaporated to dryness using a vacuum pump, the residue was dissolved in 50 µL of isopropanol and each lipid was subjected to the same kits whereupon TC and FC were quantified.
With regard to the total cholesterol (TC) in plasma in the group to which the drug was administered, the relative ratio to TC in the control group was used as an indicator while, with regard to the tissue, difference between TC and FC was defined as CE (cholesterol ester) and the lipid-constituting ratio, CE/FC, in each organ was determined whereupon their relative ratio to each control was calculated and used as an indicator. Thus, in those indicators, the control group was defined as 100% and the calculation using the following formula was carried out so as to use a plasma TC lowering action by ACAT inhibitory action to liver and small intestine of the group to which the drug was administered as an indicator and also to use the variation of CE/FC ratio by an ACAT inhibitory action to each organ as an indicator. Indicator (%) for total cholesterol in plasma = [(TC of drug-administered group)/(TC of the control group)] × 100 [formula] Indicator (%) for lipid constituting ratio in each organ = [(CE/FC of drug-administered group)/(CE/FC of the control group)] × 100 [formula]
After collection of the blood, a 18-G injection needle was inserted into apex and perfused with a physiological saline solution (120 mmHg) for about 5minutes. It was further perfused with a 10% neutral formalin buffer (120 mmHg) for about 5 minutes. Bulbar and thoracic artery was excised and fixed in a 10% formalin buffer.

CCOCCOc1cc(C(C)C)c(NC(=O)CN2CCN(CCSc3nc4ccccc4o3)CC2)c(C(C)C)c1 [Example 78, 2-[4-[2-(benzoxazol-2-ylthio)ethyl]piperazin-1-yl]-N-[2,6-diisopropyl-4-(2-ethoxyethyl)oxyphenyl]acetamide]
IC50 (ACAT [1]): 14 nM | AUC(0-inf) ([2]; medium PEG 400:DMSO = 5:1): 29.8 ng·h/mL | Cmax ([2]; medium PEG 400:DMSO = 5:1): 14.8 ng/mL

CC(C)c1cccc(C(C)C)c1NC(=O)CN1CCN(CCSc2nc3ccccc3o2)CC1 [Example 1, 2-[4-[2-(benzoxazol-2-ylthio)ethyl]piperazin-1-yl]-N-(2,6-diisopropylphenyl) acetamide]
AUC(0-inf) ([2]; medium 0.05N (Aq HCl)): 295 ng·h/mL | Cmax ([2]; medium 0.05N (Aq HCl)): 110 ng/mL

COc1cc(C(C)C)c(NC(=O)CN2CCN(CCSc3nc4ccccc4o3)CC2)c(C(C)C)c1 [Example 75, 2-[4-[2-(benzoxazol-2-ylthio)ethyl]piperazin-1-yl]-N-(2,6-diisopropyl-4-methoxyphenyl)acetamide]
macrophage selectivity (IC50 (HepG2)/IC50 (J774)) (ACAT [1]): not less than 96 fold | IC50 (ACAT [1]): 100 nM | IC50 (ACAT [3]): 10000 nM

CC(C)c1ccc(O)c(C(C)C)c1NC(=O)CN1CCN(CCSc2nc3cccc(C(F)(F)F)c3o2)CC1 [Comparative Compound, 2-[4-[2-(7-trifluoromethylbenzoxazol-2-ylthio)ethyl]piperazin-1-yl]-N-(2,6-diisopropyl-3-hydroxyphenyl)acetamide]
IC50 (ACAT [1]): 460 nM | lowering of ACAT inhibitory activity (J774) (ACAT [1]; compared with the compound of Example 85 (19 nM)): about 24 fold

CC(C)c1cccc(C(C)C)c1NC(=O)CN1CCN(CCSc2nc3cccc(C(F)(F)F)c3o2)CC1 [Example 85, 2-[4-[2-(7-trifluoromethylbenzoxazol-2-ylthio)ethyl]piperazin-1-yl]-N-(2,6-diisopropylphenyl)acetamide]
IC50 (ACAT [1]): 19 nM | IC50 (ACAT [3]): 680 nM | AUC(0-inf) ([2]; medium PEG 400): 71.8 ng·h/mL | Cmax ([2]; medium PEG 400): 17.6 ng/mL

CC(C)c1cc(O)cc(C(C)C)c1NC(=O)CN1CCN(CCSc2nc3ccccc3o2)CC1 [Example 72, 2-[4-[2-(benzoxazol-2-ylthio)ethyl]piperazin-1-yl]-N-(2,6-diisopropyl-4-hydroxyphenyl) acetamide]
IC50 (ACAT [1]): 130 nM | IC50 (ACAT [3]): 780 nM | improving effect in oral absorption in terms of Cmax value [4]: about 4.3 fold | AUC(0-inf) ([2]; medium 0.05N (Aq HCl)): 1100 ng·h/mL | Cmax ([2]; medium 0.05N (Aq HCl)): 470 ng/mL

CC(C)c1cc(C(C)C)c(CC(=O)NS(=O)(=O)Oc2c(C(C)C)cccc2C(C)C)c(C(C)C)c1 [Cl-1011]
dose from which suppression of lipid accumulation was effective [5]: ≥ 1 mg/kg | plasma cholesterol at doses effective in suppression of lipid accumulation [5]: accompanied by a significant decrease of plasma cholesterol | CE/FC Adrenal Gland ([5]; dose 0.1 mg/kg in feed): 0.98 | CE/FC Lipid Accumulation to Artery ([5]; dose 0.1 mg/kg in feed): 0.73 | CE/FC Liver ([5]; dose 0.1 mg/kg in feed): 1.03 | CE/FC Small Intestine ([5]; dose 0.1 mg/kg in feed): 0.92 | CE/FC Adrenal Gland ([5]; dose 0.3 mg/kg in feed): 1.03 | CE/FC Lipid Accumulation to Artery ([5]; dose 0.3 mg/kg in feed): 0.81 | CE/FC Liver ([5]; dose 0.3 mg/kg in feed): 0.74 | CE/FC Small Intestine ([5]; dose 0.3 mg/kg in feed): 0.82 | CE/FC Adrenal Gland ([5]; dose 1 mg/kg in feed): 0.62 | CE/FC Lipid Accumulation to Artery ([5]; dose 1 mg/kg in feed): 0.35 | CE/FC Liver ([5]; dose 1 mg/kg in feed): 0.37 | CE/FC Small Intestine ([5]; dose 1 mg/kg in feed): 0.60 | CE/FC Adrenal Gland ([5]; dose 3 mg/kg in feed): 0.24 | CE/FC Lipid Accumulation to Artery ([5]; dose 3 mg/kg in feed): 0.15 | CE/FC Liver ([5]; dose 3 mg/kg in feed): 0.17 | CE/FC Small Intestine ([5]; dose 3 mg/kg in feed): 0.08 | CE/FC Adrenal Gland ([5]; dose 10 mg/kg in feed): 0.28 | CE/FC Lipid Accumulation to Artery ([5]; dose 10 mg/kg in feed): 0 | CE/FC Liver ([5]; dose 10 mg/kg in feed): 0.07 | CE/FC Small Intestine ([5]; dose 10 mg/kg in feed): 0 | difference of selectivities in each of the tissues ([5]; suppressing rate of lipid accumulation vs CE/FC ratio in liver, small intestine, adrenal body): a significant difference of selectivities was not found

CSc1cc(C)nc(SC)c1NC(=O)CN1CCN(CCSc2nc3ccccc3o2)CC1 [Example 24, N-[2,4-bis (methylthio) -6-methyl-3-pyridyl]-2-[4-[2-(benzoxazol-2-ylthio)ethyl]-piperazin-1-yl]acetamide]
dose from which suppression of lipid accumulation was effective [5]: ≥ 3 mg/kg | plasma cholesterol at doses effective in suppression of lipid accumulation [5]: accompanied by a significant decrease of plasma cholesterol | CE/FC Adrenal Gland ([5]; dose 1 mg/kg in feed): 0.6 | CE/FC Lipid Accumulation to Artery ([5]; dose 1 mg/kg in feed): 0.91 | CE/FC Liver ([5]; dose 1 mg/kg in feed): 0.89 | CE/FC Small Intestine ([5]; dose 1 mg/kg in feed): 0.79 | CE/FC Adrenal Gland ([5]; dose 3 mg/kg in feed): 0.34 | CE/FC Lipid Accumulation to Artery ([5]; dose 3 mg/kg in feed): 0.37 | CE/FC Liver ([5]; dose 3 mg/kg in feed): 0.36 | CE/FC Small Intestine ([5]; dose 3 mg/kg in feed): 0.45 | CE/FC Adrenal Gland ([5]; dose 10 mg/kg in feed): 0.11 | CE/FC Lipid Accumulation to Artery ([5]; dose 10 mg/kg in feed): 0.32 | CE/FC Liver ([5]; dose 10 mg/kg in feed): 0.16 | CE/FC Small Intestine ([5]; dose 10 mg/kg in feed): 0.21 | CE/FC Adrenal Gland ([5]; dose 30 mg/kg in feed): 0.11 | CE/FC Lipid Accumulation to Artery ([5]; dose 30 mg/kg in feed): 0.28 | CE/FC Liver ([5]; dose 30 mg/kg in feed): 0.09 | CE/FC Small Intestine ([5]; dose 30 mg/kg in feed): 0.13

— patent EP1431294A1, “VASCULAR WALL-SELECTIVE ACAT INHIBITOR” (Kowa Company Ltd., priority 2001, dated 2003)
